pEC50, pIC50: −log10 of the molar value. Like-named read-outs stand apart in the source and are kept apart here.
Legend:
[1] = tested on: MCF-7, HepG-2, NCI-H460 and SF-268; set-up: method as in PMID 18444265, PMID 28481313, PMID 27128202; details: four tumor cell lines and some others; cited from earlier work
[2] = set-up: method as in doi:10.1007/BF01922472, doi:10.1016/j.tet.2016.09.008; details: cited from earlier work
MTT cytotoxicity assay = format: cell-based, murine; details: mouse, Neuro-2a neuroblastoma cells; Neuro-2a cells, MTT
Protocol: (§1) The murine neuroblastoma cell line Neuro-2a was purchased from ATCC.
(§2) Neuro-2a cells were cultured in DMEM medium containing 10% fetal bovine serum (Biolot, St. Petersburg, Russia) and 1% penicillin/streptomycin (Biolot, St. Petersburg, Russia). Cells were incubated at 37 °C in a humidified atmosphere containing 5% (v/v) CO2 [71].
(§3) The in vitro cytotoxicity of the individual substances was evaluated using an MTT (3-(4,5-dimethylthiazol-2-yl)-2,5-diphenyltetrazolium bromide) assay, which was performed according to the manufacturer’s instructions (Sigma-Aldrich, USA). Absorbance of the converted formazan was measured using a Multiskan FC plate photometer (Thermo Scientific, Waltham, MA, USA) at λ = 570 nm. The results were presented as percent of control data, and concentration of cell viability inhibition on 50% (IC50) was calculated.

[3] = tested on: PQ-treated Neuro-2a cells; experiment: ROS level in PQ-treated cells (H2DCFDA); format: cell-based, murine; details: compounds 1-5; compound 10 µM 1 h, PQ 500 µM 1 h
Protocol: as §1, §2
[…] Then, 6-OHDA/PQ/rotenone were added to cell suspension to resulting concentration of 50 µM, 500 µM and 10 µM respectively for incubation during 1 h. Cells incubated without neurotoxins and compounds and with neurotoxins alone were used as positive and negative controls, respectively. The 20 µL of 2,7-dichlorodihydrofluorescein diacetate solution (H2DCFDA, Molecular Probes, Eugene, OR, USA) was added to each well (10 µM, final concentration) and the plate was incubated for an additional 10 min at 37 °C. The intensity of dichlorofluorescein fluorescence was measured with PHERAstar FS plate reader (BMG Labtech, Ortenberg, Germany) at λex = 485 nm and λem = 518 nm. The data were processed by MARS Data Analysis v. 3.01R2 (BMG Labtech, Germany). The results were presented as the percent of positive control data.

[4] = DPPH radical scavenger assay; details: 30 min; for pEC50: MeOH, read-out: DPPH Radical Scavenging EC50; for DPPH Radical Scavenging 100 µM % of MeOH: compound 100 µM, absorbance 520 nm
Protocol: The DPPH radical scavenging activities of the compounds were tested as described.
The compounds were dissolved in MeOH, and the solutions (120 µL) were dispensed into wells of a 96-well microplate. In all, 30 µL of the DPPH (Sigma-Aldrich, Steinheim, Germany) solution in MeOH (7.5 × 10^−3 M) was added to each well. The concentrations of the test compounds in the mixtures were 10 and 100 µM. The mixtures were shaken and left to stand for 30 min, and the absorbance of the resulting solutions was measured at 520 nm with a microplate reader MultiscanFC (ThermoScientific, Waltham, MA, USA). The concentration scavenging 50% of the DPPH radical (EC50) was calculated for each investigated compound.

[5] = tested on: Escherichia coli and Bacillus subtilis; set-up: method as in doi:10.1007/s10600-016-1745-x; details: cited from earlier work
[6] = set-up: method as in doi:10.1007/BF03175531; details: cited from earlier work
[7] = tested on: rotenone-treated Neuro-2a cells; experiment: ROS level in rotenone-treated cells (H2DCFDA); format: cell-based, murine; details: compounds 1-5; compound 10 µM 1 h, rotenone 10 µM 1 h
Protocol: as §1, §2
(§4) The cells (1 × 10^4 cells/well of a 96-well plate) were incubated with compound solutions (10 µM) during 1 h. Then, 6-OHDA/PQ/rotenone were added to cell suspension to resulting concentration of 50 µM, 500 µM and 10 µM respectively for incubation during 1 h. Cells incubated without neurotoxins and compounds and with neurotoxins alone were used as positive and negative controls, respectively. The 20 µL of 2,7-dichlorodihydrofluorescein diacetate solution (H2DCFDA, Molecular Probes, Eugene, OR, USA) was added to each well (10 µM, final concentration) and the plate was incubated for an additional 10 min at 37 °C. The intensity of dichlorofluorescein fluorescence was measured with PHERAstar FS plate reader (BMG Labtech, Ortenberg, Germany) at λex = 485 nm and λem = 518 nm. The data were processed by MARS Data Analysis v. 3.01R2 (BMG Labtech, Germany). The results were presented as the percent of positive control data.

[8] = tested on: 6-OHDA-treated Neuro-2a cells; experiment: ROS level in 6-OHDA-treated cells (H2DCFDA); format: cell-based, murine; details: compounds 1-5; compound 10 µM 1 h, 6-OHDA 50 µM 1 h
Protocol: as §1, §2, §4

Nrf2-ARE pathway = tested on: Nrf2-ARE pathway; set-up: method as in PMID 27450949; details: cited from earlier work
[9] = cited from earlier work
[10] = tested on: methicillin-resistant Staphylococcus aureus (MRSA), S. aureus, Enterococcus faecalis and Acinetobacter baumannii, E. coli and Klebsiella pneumonia; set-up: method as in PMID 30946944; details: cited from earlier work
[11] = tested on: K562, BEL-7042, SGC-7901, A-549 and Hela cell lines; set-up: method as in PMID 30946944; details: cited from earlier work
[12] = tested on: neuroblastoma Neuro-2a cells; experiment: MTT cytotoxicity assay; format: cell-based, murine; details: up to 100 µM
Protocol: as §1, §2, §3

[13] = tested on: rotenone-treated Neuro-2a cells; experiment: Rotenone-induced PD cell model, cell viability (MTT); format: cell-based, murine; details: compounds 1-5; 1 and/or 10 µM; rotenone 10 µM; 24 h
Protocol: as §1, §2
(§5) The neuroblastoma Neuro-2a line cells (1 × 10^4 cells/well) were treated with the test compounds at concentrations of 1 and/or 10 µM for 1 h, and then the neurotoxins were added to the neuroblastoma cell suspensions. Rotenone (Sigma-Aldrich, USA) was used at the concentration of 10 µM. Paraquat (Sigma-Aldrich, USA) was used at 500 µM. 6-Hydroxydopamine (Sigma-Aldrich, USA) was used at 50 µM. Cells incubated without neurotoxins and the test compounds and cells incubated with neurotoxins only were used as positive and negative controls, respectively. After 24 h of incubation, the cell viabilities were measured using the MTT method. The results are presented as the percent of positive control data.

[14] = tested on: Neuro-2a cells treated with 6-OHDA; experiment: 6-OHDA-induced PD cell model, cell viability (MTT); format: cell-based, murine; details: compounds 1-5; 1 and/or 10 µM; 6-OHDA 50 µM; 24 h
Protocol: as §1, §2, §5

[15] = tested on: PQ-treated Neuro-2a cells; experiment: Paraquat-induced PD cell model, cell viability (MTT); format: cell-based, murine; details: compounds 1-5; 1 and/or 10 µM; paraquat 500 µM; 24 h
Protocol: as §1, §2, §5

[16] = tested on: murine lymphoma L5178Y cell line; set-up: method as in doi:10.1016/j.phytol.2015.06.003; details: cited from earlier work
[17] = tested on: several microbial pathogens; set-up: method as in PMID 17994702, doi:10.1016/j.phytol.2015.04.009; details: cited from earlier work
HeLa = tested on: HeLa; set-up: method as in PMID 24871461; details: cited from earlier work
[18] = tested on: a number of other cell lines; set-up: method as in PMID 17994702, PMID 30658264; details: cited from earlier work

SMILES	pIC50 (MTT cytotoxicity assay)	influence on ROS level in PQ-treated cells [3]	pEC50 [4]	DPPH Radical Scavenging 100 µM % of MeOH [4]	influence on ROS level in rotenone-treated cells [7]	influence on ROS level in 6-OHDA-treated cells [8]	cytotoxicity against Neuro-2a cells [12]	effect on viability of rotenone-treated cells [13]	effect on viability of Neuro-2a cells incubated with 6-OHDA [14]	effect on viability of PQ-treated cells [15]	further results
O=C1C[C@H](O)[C@@H](O)c2cc(O)cc(O)c21 [Compound 1, (3S,4S)-4-hydroxyscytalone]	< 4.00	decreased a ROS level	< 4.00	83.4 ± 1.2 % of MeOH	decreased a ROS level	decreased a ROS level	–	–	–	–	cytotoxicity against tumor cell lines [1]: no activity was shown; phytotoxic activity [2]: phytotoxic; antimicrobial activity [5]: weak antimicrobial activity; antinematodal activity [6]: antinematodal agents
CC1CC(O)CC2(Cc3cc(O)cc(O)c3C(=O)O2)O1 (stereo not drawn) [Compound 3, demethylcitreoviranol]	< 4.00	effective against ROS level enhancing	< 4.00	91.2 ± 1.8 % of MeOH	effective against ROS level enhancing	–	–	–	–	–	inducing of the Nrf2-ARE pathway (Nrf2-ARE pathway): weak inducing of the Nrf2-ARE pathway
Cc1cc(O)c(C)c(=O)o1 [Compound 4, 4-hydroxy-3,6-dimethyl-2-pyrone]	< 4.00	had almost no effect	–	87.2 ± 1.4 % of MeOH	significantly reduced the ROS level	–	not cytotoxic	did not affect	did not demonstrate any protective effects	had no effect on viability	pEC50 ([9]; reported earlier, read-out: DPPH Radical Scavenging EC50): 3.30; DPPH radical scavenging activity ([9]; via donation of a hydrogen atom and adduct forming): shows DPPH radical scavenging activity; antibacterial activities [10]: ineffective; cytotoxic activities [11]: ineffective; cytotoxicity [16]: weak cytotoxicity
C[C@H](O)CC1=C[C@H](O)[C@@H](C)OC1=O [Compound 5, Dihydroaspyrone]	< 4.00	significantly reduced the ROS level	< 4.00	95.2 ± 1.0 % of MeOH	significantly reduced the ROS level	reduced ROS level	not cytotoxic	did not affect	did not demonstrate any protective effects	statistically increased viability of PQ-treated cells only	antimicrobial activity [17]: did not show; cytotoxicity (HeLa): weak cytotoxicity; cytotoxicity [18]: did not show cytotoxicity

Reference: article PMC7760690, “Neuroprotective Metabolites from Vietnamese Marine Derived Fungi of Aspergillus and Penicillium Genera” (Marine Drugs, 2020)
